Assays:
Assay in all cases: KinaseProfiler Assay
Type in all cases: biochemical
IR = IR (Homo sapiens, UniProt P06213); settings: read-out: IR, % of Control
JAK3 = molecular target: T1, JAK3 (Homo sapiens, UniProt P52333); settings: read-out: JAK3, % of Control
T1 sequence (P52333 1-1124): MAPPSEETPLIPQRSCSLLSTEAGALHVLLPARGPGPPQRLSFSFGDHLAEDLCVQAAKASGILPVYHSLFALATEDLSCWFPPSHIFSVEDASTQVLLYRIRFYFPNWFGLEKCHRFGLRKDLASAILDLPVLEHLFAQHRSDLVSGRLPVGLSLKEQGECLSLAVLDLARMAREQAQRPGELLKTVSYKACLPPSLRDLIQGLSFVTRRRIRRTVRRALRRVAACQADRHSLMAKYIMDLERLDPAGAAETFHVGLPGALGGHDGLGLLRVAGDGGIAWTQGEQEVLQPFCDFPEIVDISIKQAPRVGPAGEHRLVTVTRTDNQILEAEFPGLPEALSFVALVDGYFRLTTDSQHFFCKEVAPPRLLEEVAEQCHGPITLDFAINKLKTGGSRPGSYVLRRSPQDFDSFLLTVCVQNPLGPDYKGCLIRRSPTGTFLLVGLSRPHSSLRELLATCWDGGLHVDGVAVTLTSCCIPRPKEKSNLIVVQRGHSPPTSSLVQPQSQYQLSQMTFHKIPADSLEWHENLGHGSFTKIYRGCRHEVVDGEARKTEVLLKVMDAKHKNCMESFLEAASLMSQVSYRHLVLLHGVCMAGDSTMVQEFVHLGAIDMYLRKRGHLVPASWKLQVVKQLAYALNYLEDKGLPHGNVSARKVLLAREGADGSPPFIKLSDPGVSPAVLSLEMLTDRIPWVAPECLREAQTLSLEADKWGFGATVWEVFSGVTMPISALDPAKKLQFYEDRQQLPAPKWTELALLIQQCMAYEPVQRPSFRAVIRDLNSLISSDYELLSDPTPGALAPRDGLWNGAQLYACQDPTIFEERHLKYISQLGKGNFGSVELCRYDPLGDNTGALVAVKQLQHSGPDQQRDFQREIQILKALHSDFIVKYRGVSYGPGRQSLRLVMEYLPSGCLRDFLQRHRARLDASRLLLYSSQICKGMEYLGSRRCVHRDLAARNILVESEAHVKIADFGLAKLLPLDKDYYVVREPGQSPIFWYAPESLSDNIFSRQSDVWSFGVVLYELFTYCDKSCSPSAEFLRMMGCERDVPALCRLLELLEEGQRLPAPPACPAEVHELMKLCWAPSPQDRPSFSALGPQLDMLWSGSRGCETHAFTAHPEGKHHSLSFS

TrkB = TrkB (Homo sapiens, UniProt Q16620); settings: read-out: TrkB, % of Control
ALK4 = ALK4 (Homo sapiens, UniProt P36896); settings: read-out: ALK4, % of Control
HIPK2 = HIPK2 (Homo sapiens, UniProt Q9H2X6); settings: read-out: HIPK2, % of Control
MSSK1 = MSSK1 (Homo sapiens, UniProt Q9UPE1); settings: read-out: MSSK1, % of Control
CDK5/p25 = CDK5/p25 (Homo sapiens, UniProt Q00535); settings: read-out: CDK5/p25, % of Control
HIPK3 = HIPK3 (Homo sapiens, UniProt Q9H422); settings: read-out: HIPK3, % of Control
PKCα = PKCα (Homo sapiens, UniProt P17252); settings: read-out: PKCα, % of Control
EphA2 = EphA2 (Homo sapiens, UniProt P29317); settings: read-out: EphA2, % of Control
CDK2/cyclinA = CDK2/cyclinA (Homo sapiens, UniProt P24941); settings: read-out: CDK2/cyclinA, % of Control
TrkA = TrkA (Homo sapiens, UniProt P04629); settings: read-out: TrkA, % of Control
SGK = SGK (Homo sapiens, UniProt O00141); settings: 5 ug/ml; read-out: SGK, % of Control
Ron = Ron (Homo sapiens, UniProt Q04912); settings: read-out: Ron, % of Control
Ron, sequence (Q04912 25-1400): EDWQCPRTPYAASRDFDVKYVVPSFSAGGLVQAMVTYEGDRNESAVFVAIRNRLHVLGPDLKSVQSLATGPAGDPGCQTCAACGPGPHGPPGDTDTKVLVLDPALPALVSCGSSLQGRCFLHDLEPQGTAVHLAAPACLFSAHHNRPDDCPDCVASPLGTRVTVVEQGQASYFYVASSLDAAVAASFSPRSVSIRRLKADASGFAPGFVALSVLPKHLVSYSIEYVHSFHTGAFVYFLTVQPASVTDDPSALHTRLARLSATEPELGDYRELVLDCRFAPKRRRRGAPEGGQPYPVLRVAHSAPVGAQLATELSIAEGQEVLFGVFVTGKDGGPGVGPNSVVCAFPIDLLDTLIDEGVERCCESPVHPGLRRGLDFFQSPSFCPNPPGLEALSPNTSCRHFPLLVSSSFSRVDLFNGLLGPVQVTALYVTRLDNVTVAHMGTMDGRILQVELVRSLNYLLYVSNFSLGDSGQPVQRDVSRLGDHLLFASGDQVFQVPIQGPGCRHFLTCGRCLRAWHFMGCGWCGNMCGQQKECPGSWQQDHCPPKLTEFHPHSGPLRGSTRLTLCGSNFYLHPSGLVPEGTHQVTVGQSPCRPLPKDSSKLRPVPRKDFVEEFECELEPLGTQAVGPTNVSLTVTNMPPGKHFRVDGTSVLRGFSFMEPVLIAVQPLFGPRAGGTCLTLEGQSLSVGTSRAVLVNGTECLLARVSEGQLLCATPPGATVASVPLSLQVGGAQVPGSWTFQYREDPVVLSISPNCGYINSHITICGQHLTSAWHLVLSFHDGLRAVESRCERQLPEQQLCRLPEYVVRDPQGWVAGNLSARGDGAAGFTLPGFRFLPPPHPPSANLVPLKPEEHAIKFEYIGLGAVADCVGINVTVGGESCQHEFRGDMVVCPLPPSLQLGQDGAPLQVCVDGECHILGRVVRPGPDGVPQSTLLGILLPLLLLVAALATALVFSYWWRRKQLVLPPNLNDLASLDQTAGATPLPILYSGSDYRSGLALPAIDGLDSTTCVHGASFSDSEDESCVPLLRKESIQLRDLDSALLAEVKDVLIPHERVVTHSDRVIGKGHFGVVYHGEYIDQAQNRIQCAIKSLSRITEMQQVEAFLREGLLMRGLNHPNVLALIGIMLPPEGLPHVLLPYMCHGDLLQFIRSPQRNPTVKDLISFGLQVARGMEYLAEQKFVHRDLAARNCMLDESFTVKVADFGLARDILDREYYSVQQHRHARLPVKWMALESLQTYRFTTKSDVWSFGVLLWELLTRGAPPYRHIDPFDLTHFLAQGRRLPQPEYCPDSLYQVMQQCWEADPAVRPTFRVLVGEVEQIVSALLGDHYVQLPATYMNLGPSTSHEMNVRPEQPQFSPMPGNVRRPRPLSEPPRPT

MSSK1, sequence (Q9UPE1 whole entry): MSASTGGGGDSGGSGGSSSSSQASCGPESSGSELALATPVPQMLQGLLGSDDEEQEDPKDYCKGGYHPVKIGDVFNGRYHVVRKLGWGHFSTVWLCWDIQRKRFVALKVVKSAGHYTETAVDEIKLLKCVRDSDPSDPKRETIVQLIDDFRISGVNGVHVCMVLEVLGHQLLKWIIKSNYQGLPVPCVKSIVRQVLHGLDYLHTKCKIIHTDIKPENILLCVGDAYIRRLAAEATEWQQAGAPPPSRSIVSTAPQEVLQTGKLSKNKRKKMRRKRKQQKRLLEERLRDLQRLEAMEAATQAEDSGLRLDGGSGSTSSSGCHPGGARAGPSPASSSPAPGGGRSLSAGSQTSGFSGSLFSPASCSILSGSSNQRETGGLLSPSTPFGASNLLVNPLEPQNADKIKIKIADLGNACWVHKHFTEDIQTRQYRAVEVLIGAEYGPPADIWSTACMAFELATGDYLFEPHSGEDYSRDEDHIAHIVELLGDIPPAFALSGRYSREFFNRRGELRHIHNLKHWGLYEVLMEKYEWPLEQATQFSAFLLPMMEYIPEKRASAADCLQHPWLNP
TrkA, sequence (P04629 33-796): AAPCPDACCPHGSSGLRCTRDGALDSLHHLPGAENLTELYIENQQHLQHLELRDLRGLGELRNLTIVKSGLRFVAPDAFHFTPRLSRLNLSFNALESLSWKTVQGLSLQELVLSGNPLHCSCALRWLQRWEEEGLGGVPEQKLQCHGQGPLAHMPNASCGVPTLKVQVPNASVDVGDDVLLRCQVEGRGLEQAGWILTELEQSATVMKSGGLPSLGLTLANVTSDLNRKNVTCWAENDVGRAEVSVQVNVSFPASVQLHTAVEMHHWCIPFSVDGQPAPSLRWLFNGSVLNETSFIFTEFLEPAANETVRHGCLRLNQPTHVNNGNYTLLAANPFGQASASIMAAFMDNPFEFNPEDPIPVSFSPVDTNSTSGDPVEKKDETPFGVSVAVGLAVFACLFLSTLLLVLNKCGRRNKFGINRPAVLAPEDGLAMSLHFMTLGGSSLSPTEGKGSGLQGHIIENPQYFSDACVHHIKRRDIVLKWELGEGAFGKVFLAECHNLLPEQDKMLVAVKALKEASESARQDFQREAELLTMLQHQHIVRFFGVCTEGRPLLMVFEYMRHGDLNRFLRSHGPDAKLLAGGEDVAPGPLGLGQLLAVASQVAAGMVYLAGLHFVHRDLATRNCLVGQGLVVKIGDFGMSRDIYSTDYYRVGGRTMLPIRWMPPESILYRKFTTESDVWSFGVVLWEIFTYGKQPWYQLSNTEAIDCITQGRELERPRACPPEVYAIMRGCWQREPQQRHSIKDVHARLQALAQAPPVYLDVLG
TrkB, sequence (Q16620 32-822): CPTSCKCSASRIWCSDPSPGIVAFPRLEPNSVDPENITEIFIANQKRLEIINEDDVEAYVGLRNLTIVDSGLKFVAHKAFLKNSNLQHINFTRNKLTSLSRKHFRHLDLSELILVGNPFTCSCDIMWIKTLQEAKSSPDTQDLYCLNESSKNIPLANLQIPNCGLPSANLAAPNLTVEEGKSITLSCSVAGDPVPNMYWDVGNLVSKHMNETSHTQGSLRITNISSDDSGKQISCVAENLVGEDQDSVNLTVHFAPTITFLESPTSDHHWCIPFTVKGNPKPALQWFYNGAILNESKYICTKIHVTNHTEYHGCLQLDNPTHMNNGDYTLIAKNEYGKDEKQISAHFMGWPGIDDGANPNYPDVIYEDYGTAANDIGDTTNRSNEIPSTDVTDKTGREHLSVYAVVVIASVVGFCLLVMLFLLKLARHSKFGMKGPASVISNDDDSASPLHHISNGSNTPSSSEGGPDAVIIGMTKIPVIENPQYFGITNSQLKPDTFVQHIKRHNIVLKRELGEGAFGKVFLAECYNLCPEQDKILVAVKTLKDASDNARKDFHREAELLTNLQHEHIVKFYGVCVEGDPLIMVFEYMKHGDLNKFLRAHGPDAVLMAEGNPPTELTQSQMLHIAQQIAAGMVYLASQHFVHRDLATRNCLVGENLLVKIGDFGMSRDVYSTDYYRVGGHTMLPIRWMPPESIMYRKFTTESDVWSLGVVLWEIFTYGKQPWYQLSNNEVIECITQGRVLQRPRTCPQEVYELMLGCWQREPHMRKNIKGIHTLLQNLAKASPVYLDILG
CDK5/p25, sequence (Q00535 whole entry): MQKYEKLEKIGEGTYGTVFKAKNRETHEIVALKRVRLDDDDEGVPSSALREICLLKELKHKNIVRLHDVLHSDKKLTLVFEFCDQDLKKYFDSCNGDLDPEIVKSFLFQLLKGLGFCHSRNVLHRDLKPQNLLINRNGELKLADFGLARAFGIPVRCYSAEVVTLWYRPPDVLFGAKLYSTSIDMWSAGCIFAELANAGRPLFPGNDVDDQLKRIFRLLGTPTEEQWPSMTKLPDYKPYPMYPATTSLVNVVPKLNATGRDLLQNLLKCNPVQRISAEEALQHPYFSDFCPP
CDK5/p25, sequence (Q15078 99-307 partner limits assumed): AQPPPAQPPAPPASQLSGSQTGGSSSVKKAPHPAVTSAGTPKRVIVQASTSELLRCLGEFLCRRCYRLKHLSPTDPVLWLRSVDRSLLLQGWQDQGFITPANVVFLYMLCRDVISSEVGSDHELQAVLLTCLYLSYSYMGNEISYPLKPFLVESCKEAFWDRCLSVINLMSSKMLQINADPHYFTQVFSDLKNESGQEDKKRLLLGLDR

- remaining activity at 1 µg/mL (IR; 1 ug/ml): 120%
- remaining activity at 5 µg/mL (IR; 5 ug/ml): 108%
- remaining activity at 1 µg/mL (JAK3; 1 ug/ml): 104%
- remaining activity at 5 µg/mL (JAK3; 5 ug/ml): 84%
- remaining activity at 25 µg/mL (JAK3; 25 ug/ml): 17%
- remaining activity at 50 µg/mL (JAK3; 50 ug/ml): 5%
- remaining activity at 1 µg/mL (TrkB; 1 ug/ml): 95%
- remaining activity at 5 µg/mL (TrkB; 5 ug/ml): 89%
- remaining activity at 25 µg/mL (TrkB; 25 ug/ml): 58%
- remaining activity at 50 µg/mL (TrkB; 50 ug/ml): 3%
- remaining activity at 1 µg/mL (ALK4; 1 ug/ml): 116%
- remaining activity at 25 µg/mL (ALK4; 25 ug/ml): 71%
- remaining activity at 1 µg/mL (HIPK2; 1 ug/ml): 110%
- remaining activity at 5 µg/mL (HIPK2; 5 ug/ml): 98%
- remaining activity at 1 µg/mL (MSSK1; 1 ug/ml): 47%
- remaining activity at 5 µg/mL (MSSK1; 5 ug/ml): 11%
- remaining activity at 25 µg/mL (MSSK1; 25 ug/ml): 7%
- remaining activity at 50 µg/mL (MSSK1; 50 ug/ml): 5%
- remaining activity at 25 µg/mL (CDK5/p25; 25 ug/ml): 24%
- remaining activity at 50 µg/mL (CDK5/p25; 50 ug/ml): 87%
- remaining activity at 1 µg/mL (HIPK3; 1 ug/ml): 106%
- remaining activity at 5 µg/mL (HIPK3; 5 ug/ml): 102%
- remaining activity at 50 µg/mL (HIPK3; 50 ug/ml): 59%
- remaining activity at 1 µg/mL (PKCα; 1 ug/ml): 100%
- remaining activity at 5 µg/mL (PKCα; 5 ug/ml): 100%
- remaining activity at 25 µg/mL (PKCα; 25 ug/ml): 75%
- remaining activity at 50 µg/mL (PKCα; 50 ug/ml): 83%
- remaining activity at 1 µg/mL (EphA2; 1 ug/ml): 124%
- remaining activity at 50 µg/mL (EphA2; 50 ug/ml): 52%
- remaining activity at 1 µg/mL (CDK2/cyclinA; 1 ug/ml): 107%
- remaining activity at 5 µg/mL (CDK2/cyclinA; 5 ug/ml): 96%
- remaining activity at 25 µg/mL (CDK2/cyclinA; 25 ug/ml): 57%
- remaining activity at 50 µg/mL (CDK2/cyclinA; 50 ug/ml): 6%
- remaining activity at 1 µg/mL (TrkA; 1 ug/ml): 36%
- remaining activity at 5 µg/mL (TrkA; 5 ug/ml): 19%
- remaining activity at 25 µg/mL (TrkA; 25 ug/ml): 8%
- remaining activity at 50 µg/mL (TrkA; 50 ug/ml): 3%
- remaining activity at 5 µg/mL (SGK): 84%
- remaining activity at 1 µg/mL (Ron; 1 ug/ml): 135%
- remaining activity at 5 µg/mL (Ron; 5 ug/ml): 127%
- remaining activity at 25 µg/mL (Ron; 25 ug/ml): 60%
- remaining activity at 50 µg/mL (Ron; 50 ug/ml): 69%
Compound: COc1cc(O)c(CC=C(C)C)c(O)c1C(=O)/C=C/c1ccc(O)cc1 [Xanthohumol, xanthohumol]

Source: US20080051466A1, “Isoalpha acid based protein kinase modulation cancer treatment” (Metaproteomics, LLC, priority 2006, published 2008)
